Source: ChEMBL document CHEMBL1201862, “PubChem BioAssay data set” (2004)
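Step 1: Grow cells in 96-well plates. Step 2: Expose to compound for 48 hours at 5 concentrations. Step 3: Interpolate endpoints linearly; if unreached, use highest concentration. GI50 = concentration required for 50% inhibition of growth.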 The source made the active and inactive calls. Cut-off read from the data, not from the text of the source: active = GI50 up to about 1.1 µM and inactive = higher.

Legend:
Experiment in all cases: NCI tumour cell line growth inhibition, 48 h
786-0 = system: 786-0
A549 = system: A549
ACHN = system: ACHN
CCRF-CEM = system: CCRF-CEM
EKVX = system: EKVX
HCC 2998 = system: HCC 2998
HL-60 = system: HL-60
HOP-62 = system: HOP-62
Hs-578T = system: Hs-578T
MDA-N = system: MDA-N
NCI-H226 = system: NCI-H226
NCI-H522 = system: NCI-H522
NCI/ADR-RES = system: NCI/ADR-RES
OVCAR-3 = system: OVCAR-3
OVCAR-5 = system: OVCAR-5
RXF 393 = system: RXF 393
SF-268 = system: SF-268
SK-OV-3 = system: SK-OV-3
SN12C = system: SN12C
HOP-92 = system: HOP-92

| Structure (SMILES) | GI50 (786-0) | GI50 (A549) | GI50 (ACHN) | GI50 (CCRF-CEM) | GI50 (EKVX) | GI50 (HCC 2998) | GI50 (HL-60) | GI50 (HOP-62) | GI50 (Hs-578T) | GI50 (MDA-N) | GI50 (NCI-H226) | GI50 (NCI-H522) | GI50 (NCI/ADR-RES) | GI50 (OVCAR-3) | GI50 (OVCAR-5) | GI50 (RXF 393) | GI50 (SF-268) | GI50 (SK-OV-3) | GI50 (SN12C) | GI50 (HOP-92) |
| --- | --- | --- | --- | --- | --- | --- | --- | --- | --- | --- | --- | --- | --- | --- | --- | --- | --- | --- | --- | --- |
| c1cc(C2N3CCCN2CC3)ccn1 (stereo unspecified) | 56.2 µM (inactive) | > 100 µM (inactive) | > 100 µM (inactive) | 33.4 µM (inactive) | > 100 µM (inactive) | > 100 µM (inactive) | 40.2 µM (inactive) | > 100 µM (inactive) | 22.8 µM (inactive) | 35.1 µM (inactive) | > 100 µM (inactive) | 4.85 µM (inactive) | 61 µM (inactive) | 29.4 µM (inactive) | > 100 µM (inactive) | > 100 µM (inactive) | 8.38 µM (inactive) | > 100 µM (inactive) | 79.8 µM (inactive) | – |
| Cc1cccc(Nc2nn3c(=O)c4c5c(sc4nc3s2)CCCC5)c1 | 45.9 µM (inactive) | 14.8 µM (inactive) | 7.71 µM (inactive) | 56.5 µM (inactive) | – | – | 23.4 µM (inactive) | 28.4 µM (inactive) | 6.04 µM (inactive) | 15 µM (inactive) | > 100 µM (inactive) | 4.35 µM (inactive) | 11.1 µM (inactive) | 25.9 µM (inactive) | 87.7 µM (inactive) | 20.4 µM (inactive) | 3.36 µM (inactive) | 45.8 µM (inactive) | 66.7 µM (inactive) | 26.4 µM (inactive) |
| Cc1ccc2nc(-c3ccc(N4C(=O)C(Cl)C4c4ccc(Cl)cc4)cc3)sc2c1 (stereo unspecified) | 21.9 µM (inactive) | 17.3 µM (inactive) | 22.4 µM (inactive) | 7.94 µM (inactive) | 2.62 µM (inactive) | – | 29.9 µM (inactive) | 20.6 µM (inactive) | 23.3 µM (inactive) | 17.9 µM (inactive) | 13.8 µM (inactive) | – | 18.5 µM (inactive) | 16.3 µM (inactive) | 18.4 µM (inactive) | – | 22.8 µM (inactive) | 12.7 µM (inactive) | 19.9 µM (inactive) | 0.137 µM (active) |
| COC(=O)c1ccc(Cc2cc(Cc3ccc(C(=O)OC)cc3)cc(Cc3ccc(C(=O)OC)cc3)c2)cc1 | > 25 µM (inactive) | > 25 µM (inactive) | > 25 µM (inactive) | – | > 25 µM (inactive) | > 25 µM (inactive) | > 25 µM (inactive) | > 25 µM (inactive) | > 25 µM (inactive) | > 25 µM (inactive) | > 25 µM (inactive) | > 25 µM (inactive) | > 25 µM (inactive) | > 25 µM (inactive) | > 25 µM (inactive) | – | > 25 µM (inactive) | > 25 µM (inactive) | > 25 µM (inactive) | > 25 µM (inactive) |
| NC(=O)C[S+]([O-])CC(N)C(=O)O (stereo unspecified) | > 100 µM (inactive) | > 100 µM (inactive) | > 100 µM (inactive) | – | > 100 µM (inactive) | > 100 µM (inactive) | – | > 100 µM (inactive) | > 100 µM (inactive) | > 100 µM (inactive) | > 100 µM (inactive) | > 100 µM (inactive) | > 100 µM (inactive) | > 100 µM (inactive) | > 100 µM (inactive) | > 100 µM (inactive) | > 100 µM (inactive) | – | > 100 µM (inactive) | > 100 µM (inactive) |
| Cc1ccc2c(c1)C(=O)c1nc(C)ccc1C2=O | 43.8 µM (inactive) | 31 µM (inactive) | 33.3 µM (inactive) | 27.9 µM (inactive) | 29.4 µM (inactive) | 34.9 µM (inactive) | 21.3 µM (inactive) | 69 µM (inactive) | > 100 µM (inactive) | 20.2 µM (inactive) | 43.5 µM (inactive) | 28.7 µM (inactive) | 21.4 µM (inactive) | 57.1 µM (inactive) | 86.1 µM (inactive) | 66.7 µM (inactive) | 32 µM (inactive) | > 100 µM (inactive) | 26.5 µM (inactive) | – |
| CC(C(=O)N1c2ccccc2Sc2ccccc21)N1c2ccccc2Sc2ccccc21 (stereo unspecified) | 88.1 µM (inactive) | > 100 µM (inactive) | > 100 µM (inactive) | 57.1 µM (inactive) | > 100 µM (inactive) | – | 77.6 µM (inactive) | > 100 µM (inactive) | > 100 µM (inactive) | > 100 µM (inactive) | 40.1 µM (inactive) | – | > 100 µM (inactive) | 55 µM (inactive) | > 100 µM (inactive) | > 100 µM (inactive) | > 100 µM (inactive) | > 100 µM (inactive) | > 100 µM (inactive) | 26.2 µM (inactive) |
| O=C(N/N=C(COc1ccccc1Cl)\N=C\c1ccncc1)c1ccncc1 | > 100 µM (inactive) | > 100 µM (inactive) | > 100 µM (inactive) | > 100 µM (inactive) | > 100 µM (inactive) | > 100 µM (inactive) | > 100 µM (inactive) | > 100 µM (inactive) | > 100 µM (inactive) | > 100 µM (inactive) | – | > 100 µM (inactive) | > 100 µM (inactive) | > 100 µM (inactive) | > 100 µM (inactive) | > 100 µM (inactive) | > 100 µM (inactive) | > 100 µM (inactive) | > 100 µM (inactive) | > 100 µM (inactive) |
| C=CCc1cccc2cc(C(N)=O)c(=N)oc12 | 73.8 µM (inactive) | > 100 µM (inactive) | 61.9 µM (inactive) | 52.8 µM (inactive) | – | > 100 µM (inactive) | > 100 µM (inactive) | > 100 µM (inactive) | > 10 µM (inactive) | > 100 µM (inactive) | 43.9 µM (inactive) | – | > 100 µM (inactive) | > 100 µM (inactive) | > 100 µM (inactive) | > 100 µM (inactive) | > 10 µM (inactive) | 90.2 µM (inactive) | > 100 µM (inactive) | 68.7 µM (inactive) |
| c1ccc(C2CC(N3CCOCC3)=Nc3ccccc3N2)cc1 (stereo unspecified) | > 100 µM (inactive) | > 100 µM (inactive) | > 100 µM (inactive) | > 100 µM (inactive) | > 100 µM (inactive) | – | > 100 µM (inactive) | > 100 µM (inactive) | > 100 µM (inactive) | > 100 µM (inactive) | > 100 µM (inactive) | > 100 µM (inactive) | > 100 µM (inactive) | > 100 µM (inactive) | > 100 µM (inactive) | 78.5 µM (inactive) | > 100 µM (inactive) | > 100 µM (inactive) | > 100 µM (inactive) | – |
| O=C(O)Cc1cccc2c1OC(c1ccccc1)C(C(=O)c1ccccc1)C2=O (stereo unspecified) | 52.5 µM (inactive) | 36.3 µM (inactive) | 40.3 µM (inactive) | 41.2 µM (inactive) | 36.2 µM (inactive) | 20.4 µM (inactive) | 26.5 µM (inactive) | > 100 µM (inactive) | > 100 µM (inactive) | 33.8 µM (inactive) | > 100 µM (inactive) | 43.2 µM (inactive) | > 100 µM (inactive) | > 100 µM (inactive) | > 100 µM (inactive) | > 100 µM (inactive) | 44 µM (inactive) | 2.07 µM (inactive) | 45.8 µM (inactive) | – |
| Cc1cc(O)c(C(c2cccnc2)c2c(O)cc(C)[nH]c2=O)c(=O)[nH]1 | > 100 µM (inactive) | > 100 µM (inactive) | > 100 µM (inactive) | > 100 µM (inactive) | > 100 µM (inactive) | – | > 100 µM (inactive) | > 100 µM (inactive) | > 100 µM (inactive) | > 100 µM (inactive) | – | > 100 µM (inactive) | > 100 µM (inactive) | > 100 µM (inactive) | > 100 µM (inactive) | > 100 µM (inactive) | > 100 µM (inactive) | > 100 µM (inactive) | > 100 µM (inactive) | – |
| Cc1ccc(S(=O)(=O)N/N=C2/CCC(C(C)(C)C)CC2Br)cc1 (stereo unspecified) | 31.2 µM (inactive) | 34 µM (inactive) | 34.1 µM (inactive) | 24.5 µM (inactive) | 36.6 µM (inactive) | – | 41.9 µM (inactive) | 32.4 µM (inactive) | 17.2 µM (inactive) | 28.2 µM (inactive) | 17.8 µM (inactive) | 18.2 µM (inactive) | 17.6 µM (inactive) | 16.2 µM (inactive) | 19.5 µM (inactive) | – | 36.6 µM (inactive) | 33.8 µM (inactive) | 17.3 µM (inactive) | 26.1 µM (inactive) |
| Cc1cc(NCc2ccccc2)c2ccccc2[n+]1CCCCCCCCCC[n+]1c(C)cc(NCc2ccccc2)c2ccccc21.[O-][Cl+3]([O-])([O-])[O-].[O-][Cl+3]([O-])([O-])[O-] | 0.653 µM (active) | 0.394 µM (active) | 0.565 µM (active) | 0.377 µM (active) | 1.19 µM (inactive) | 0.562 µM (active) | 0.265 µM (active) | – | 0.65 µM (active) | 0.374 µM (active) | – | 19.5 µM (inactive) | 3.15 µM (inactive) | – | 2.19 µM (inactive) | 1.96 µM (inactive) | 0.478 µM (active) | 0.365 µM (active) | 0.279 µM (active) | 0.649 µM (active) |
| CC1C2C=CC1C(c1c3ccc(=O)c(O)c-3oc3c(O)c(O)ccc13)C2C(=O)O (stereo unspecified) | 61 µM (inactive) | 35 µM (inactive) | 53.5 µM (inactive) | 1.01 µM (active) | 50.9 µM (inactive) | > 100 µM (inactive) | 44.3 µM (inactive) | > 100 µM (inactive) | 89.5 µM (inactive) | 21.4 µM (inactive) | 10.2 µM (inactive) | – | > 100 µM (inactive) | > 100 µM (inactive) | > 100 µM (inactive) | > 100 µM (inactive) | > 100 µM (inactive) | > 100 µM (inactive) | 24 µM (inactive) | 75 µM (inactive) |
